Experimental data taken from patent publication US20250129334A1, “LINEAGE SPECIFICATION DURING STEM CELL TRANSITION” (Amniotics AB, priority 2021, published 2025).

Columns and labels:
[1] = tested on: HE cells; assay: Single-cell RNAseq of treated HE cells at day 2 of subculture; assay type: cell-based, human
Protocol: Sorted HE, EHT and HSC-like cells as well magnetically selected (Miltenyi Biotec) cord blood CD34^+ cells were plated onto Matrigel (16 μg/cm^2, Corning)-coated 96-well flat bottom plates in HE medium (Ditadi, A. & Sturgeon, C. M. Directed differentiation of definitive hemogenic endothelium and hematopoietic progenitors from human pluripotent stem cells. Methods 101, 65-72 (2016)) with 1% penicillin-streptomycin and kept in a humidified incubator at 37° C., 5% CO2, 4% O2 overnight. The following day (day 0), wells were washed twice with PBS and fresh HE medium was added, together with UK5099 (10 μM) or DCA (3 mM), where indicated. On day 1 and 2 (as indicated), cells were washed twice with PBS 0.04% UltraPure BSA and collected after a 2-minute incubation at 37° C. with StemPro Accutase Cell Dissociation Reagent. Cells were spun down, resuspended in PBS 0.04% UltraPure BSA, counted (yield between 8,000-18,000 cells) and library preparation was conducted according to the Chromium Single Cell 3′ Reagent kit v3 instructions (10× Genomics). Sequencing was performed on a NOVASeq 6000 from Illumina with the run parameters (28-8-0-91) recommended by 10× Genomics with a final loading concentration of 300 pM of the pooled libraries. Human Umbilical Cord Blood samples were collected from Skine University Hospital (Lund and Malmo) and Helsingborg Hospital with informed consents according to guidelines approved by the regional ethical committee.
The data was processed and analyzed using Seurat v3.1.0, where cells were allowed to have up to 20% mitochondrial reads prior to log-normalization and finding the top 500 variable genes using the “vst” method. Cell cycle scores were calculated and the data was scaled regressing on mitochondrial content and the difference of the S and G2M score. Principal components were calculated prior to calculating a UMAP. Pseudotime trajectories describing two developmental routes were identified in our EHT dataset using Slingshot (Street, K. et al. Slingshot: cell lineage and pseudotime inference for single-cell transcriptomics. BMC Genomics 19,477 (2018)) along which the cells were ordered. The cells were then binned along each trajectory where the cell type composition of each bin was calculated as percentages. Cord blood CD34+ cells were mapped to our data and labeled using scCoGAPS (Stein-O'Brien, G. L. et al. Decomposing Cell Identity for Transfer Learning across 23 Cellular Measurements, Platforms, Tissues, and Species. Cell Syst 8, 395-411.e8 (2019)). CS13 data from Zeng et al. (Zeng, Y. et al. Tracing the first hematopoietic stem cell generation in human embryo by single-cell RNA sequencing. Cell Res 1-14 (2019)) was read and processed to make a UMAP from which the cells they name as “AEC” and “Hem” were identified. These 99 cells were mapped to our data and labeled using SCMAP59. Carnegie Stage 13 data from Zeng et al. was mapped to our EHT dataset using scCoGAPS where 10 patterns were identified, named according to their respective weights (as shown in Table 1) and then projected using projectR. […] The CS 13 dorsal aorta dataset from Zeng et al. was mapped onto our EHT dataset using scCoGAPS. The patterns resulting from this analysis were classified as the cell types described by Zeng et al.
Each cell was assigned to the group that achieved the highest weight. […]

[2] = tested on: fetal liver; assay: In vivo compound injection of pregnant mice, fetal liver analysis at E14.5
Protocol: For fetal liver analysis, pregnant female C57Bl/6xB6.SJL mice were injected intraperitoneally at E9.5 with UK5099 (4 mg/kg) or DCA (200 mg/kg) or PBS (control). Embryos were harvested at E14.5 and individually weighed and processed. Fetal livers were dissected and homogenised in 800 μL ice cold PBS supplemented with 2% fetal bovine serum (FBS) and FL cells were washed in PBS with 2%/FBS. For the differentiated lineage panel, cells were stained with B220 and CD19 (B-cell markers)-PE, CD3e-APC, Ter119-PeCy7 and CD71-FITC and analyzed on a BD FACSARIA III. For the HSC panel, samples were first treated with ammonium chloride solution (STEMCELL Technologies, France) to lyse red blood cells, washed twice in ice cold PBS with 2% FBS, stained with CD3e, B220, Ter119, Gr1 (Lineage)-PeCy5, c-Kit-Efluor780, Sca1-BV421, CD48-FITC, CD150-BV605 and 7-AAD (for dead cell exclusion) and analyzed on a BD FACSARIA III. […] For plating of CFU assays, 100 LT-HSCs were sorted (gating strategy shown in FIG. 11, e) and resuspended in 3.0 mL Methocult M3434 (STEMCELL Technologies, France). Each mixture was divided onto 2 wells of a non-tissue culture treated 6-well plate. Following a 14-day incubation in a humidified incubator at 37° C., 5% CO2, 20% O2, colonies were morphologically distinguished and scored. […] Cells were stained with anti-cKit and anti-CD45 antibodies and analyzed on a BD LSRFortessa. […]

| SMILES | less treated HE cells in cluster 7 compared to the control ([1]; day 2, DCA 3 mM) | frequency of phenotypic long-term HSCs (LT-HSCs) ([2]; LSK CD48-CD150+, UK5099 4 mg/kg, DCA 200 mg/kg) | in vivo EHT and hematopoiesis ([2]; UK5099 4 mg/kg i.p. at E9.5) | LSD1, GFI1 and GFI1B expression ([1]; as compared to DCA-treated cells) | average expression levels of erythroid lineage genes (RYK, KLF3, TAL1, GATA2, ZFPM1, KLF1, NFE2, ANK1, HBQ1) ([1]; clusters 6 and 7) | percentage of cells in cluster 6 ([1]; day 2) | more treated HE cells in cluster 7 compared to the control ([1]; day 2, UK5099 10 μM) |
| --- | --- | --- | --- | --- | --- | --- | --- |
| O=C(O)C(Cl)Cl [DCA, dichloroacetate] | 35% |  |  |  |  |  |  |
| N#CC(=Cc1cn(-c2ccccc2)c2ccccc12)C(=O)O [UK5099, 2-Cyano-3-(1-phenyl-1H-indol-3-yl)-2-propenoic acid] |  | not significantly affected | did not see a significant effect | higher levels | higher | constant between conditions | 38% |
